Results: US10874334B1, “Methods and systems for quantification of blood-brain barrier permeation of glycosylated peptides” (ARIZONA BOARD OF REGENTS ON BEHALF OF THE UNIVERSITY OF …, priority 2016, dated 2020)

Key:
[1] = Degradation study of enkephalins spiked into rodent serum (FIA-MS^n); details: for stability (degradation) in serum with 5% acetic acid: rat serum + 5% acetic acid (HAc), 60-minute period before measurements (Ser+HAc+60 min); for stability (degradation) in serum: rat serum, peptides incubated in serum for 60 minutes prior to the study (Ser+60 min)
Description: Ser refers to when Enkephalins were added to rat serum and degradation was allowed to proceed and the remaining enkephalin levels were measured at specific time points. […] Ser+HAc+60 min refers to when 5% acetic acid (HAc) was added to the serum, preserving enkephalins by inhibiting degradation during a 60 minute period before beginning measurements (Ser+HAc+60 min.). All error bars are SEM. Statistical significance is indicated by asterisks when p<0.05.
Degradation studies of enkephalins in biological fluids were performed by […]. […] Enkephalins were added to rat serum and degradation was allowed to proceed and the remaining enkephalin levels were measured at specific time points (Ser).

[2] = Degradation study of enkephalins spiked into cerebral spinal fluid (CSF) from rats; details: for stability (degradation) in CSF with 5% HAc: CSF from rats + 5% HAc (+CSF+HAc), compared with isotonic aCSF

Compound	stability (degradation) in serum with 5% acetic acid [1]	stability (degradation) in serum [1]	stability (degradation) in CSF ([2]; CSF from rats (+CSF), single exponential decay fit)	stability (degradation) in CSF with 5% HAc [2]
CC(C)C[C@H](NC(=O)[C@H](Cc1ccccc1)NC(=O)CNC(=O)CNC(=O)[C@@H](N)Cc1ccc(O)cc1)C(=O)O [Leu-Enkephalin, leucine enkephalin]	preserved enkephalins by inhibiting degradation	degradation was already complete	degradation occurs in CSF over 20 minutes	prevents the degradation
methionine enkephalin [Met-Enkephalin]	preserved enkephalins by inhibiting degradation	degradation was already complete		prevents the degradation
